Like-named read-outs stand apart in the source and are kept apart here. Starred links: 1 amine or outer side, 2 acyl side, 3 side chain; linkers in the order of their positions; H or OH if unused. Positions of bridges follow the written chain, without caps; N, C: chain ends. Non-standard residues stand in square brackets, D forms with d. Residues, ends and D or L forms follow the SMILES beside them. *: point of attachment. NMeF = CN[C@@H](Cc1ccccc1)C(=O)O; NMeGABA = CN(CCCC(=O)[*:2])[*:1]; NMeI = CC[C@H](C)[C@H](NC)C(=O)O; NMeT = CN[C@H](C(=O)O)[C@@H](C)O; hPhe = N[C@@H](CCc1ccccc1)C(=O)O; NMeβAla = CN(CCC(=O)[*:2])[*:1]; NMeD = CN[C@@H](CC(=O)O)C(=O)O; NMeL = CN[C@@H](CC(C)C)C(=O)O; NMeV = CN[C@H](C(=O)O)C(C)C; NMeAbu = CC[C@H](NC)C(=O)O; NMeA = CN[C@@H](C)C(=O)O; Piperidide = C1CCN(*)CC1; Abu = CC[C@H](N)C(=O)O; NBuGly = CCCCNCC(=O)O; Sar = CNCC(=O)O; tBu = CC(C)(C)*
Assays:
[1] = Metabolic stability test: liver microsomal stability assay; assay type: in vitro ADME, mouse; details: for microsomal CLint at 1 µM: male, pH 7.4, presence of NADPH, read-out: Mouse Hepatic Microsome CLh,int NADPH(+)
[2] = Membrane permeability test using Caco-2 cells with preincubation; assay type: in vitro ADME; details: Caco-2
Caco-2 cells = test: as above; assay type: in vitro ADME
[3] = mouse liver microsomes 0.5 mg protein/mL, compound 1 µM
[4] = mouse liver microsomes 0.5 mg protein/mL, compound 1 µM, absence of NADPH
[5] = preincubation 20 to 24 hours, Apical FaSSIF/HBSS pH 6.0, Basal HBSS 4% BSA pH 7.4, 180 minutes, read-out: Caco2 Papp
[6] = Caco-2 cells, preincubation 20 to 24 hours, apical FaSSIF/HBSS 1% DMSO pH 6.0, basal HBSS 4% BSA pH 7.4, basal sample at 180 minutes

| SMILES | microsomal CLint at 1 µM [1, 3] | Mouse Hepatic Microsome CLh,int NADPH(-) [1, 4] | Papp A→B [2, 5] | Caco2 Papp (10^-6 cm/sec) (Caco-2 cells; [6]) | Mouse Hepatic Microsome CLh,int NADPH(-) [1] | Papp A→B [2] | Caco2 Papp (10^-6 cm/sec) (Caco-2 cells; Caco-2) |
| --- | --- | --- | --- | --- | --- | --- | --- |
| CC[C@H](C)[C@@H]1NC(=O)[C@H](Cc2ccccc2)N(C)C(=O)[C@H]([C@@H](C)O)N(C)C(=O)[C@H]([C@@H](C)CC)N(C)C(=O)[C@H](CC(C)C)NC(=O)CN(C)C(=O)[C@H](CC)N(C)C(=O)[C@H](Cc2ccccc2)N(C)C(=O)[C@H](COC(C)(C)C)NC(=O)[C@H](CC(C)C)N(C)C(=O)[C@H](CC(C)C)NC(=O)[C@H](C)N(C)C(=O)C[C@@H](C(=O)N2CCCCC2)N(C)C(=O)[C@H](CC(C)C)N(C)C1=O [pd095] ([NMeA]L[NMeL]S(tBu)[NMeF][NMeAbu][Sar]L[NMeI][NMeT][NMeF]I[NMeL][NMeD]-Piperidide; lactam N-14) | 25.6 µL/min/mg | 29.2 µL/min/mg Protein | < 0.1 ×10⁻⁶ cm/s | <0.10 10^-6 cm/sec |  |  |  |
| CC[C@H](C)[C@H]1C(=O)N(C)[C@@H](CC(C)C)C(=O)N[C@@H](CCc2ccccc2)C(=O)N(C)[C@@H](CC(C)C)C(=O)N(C)CCC(=O)N(C)[C@@H](C(C)C)C(=O)N[C@@H](CC(C)C)C(=O)N(C)[C@@H](CC(C)C)C(=O)N[C@@H]([C@@H](C)O)C(=O)N(C)CCC(=O)N(C)[C@@H](Cc2ccccc2)C(=O)N[C@@H](C(C)C)C(=O)N(C)[C@H](C(=O)N2CCCCC2)CC(=O)N(C)CC(=O)N1C [pd096] ([Sar][NMeI][NMeL][hPhe][NMeL][NMeβAla][NMeV]L[NMeL]T[NMeβAla][NMeF]V[NMeD]-Piperidide; lactam N-14) |  |  |  |  | 18.2 µL/min/mg Protein | 0.51 ×10⁻⁶ cm/s | 0.51 10^-6 cm/sec |
| CC(C)C[C@@H]1NC(=O)[C@@H]2CCCN2C(=O)[C@H](C(C)C)N(C)C(=O)[C@H](C)NC(=O)[C@H](CC(C)C)N(C)C(=O)[C@@H](C(C)C)NC(=O)C[C@@H](C(=O)N2CCCCC2)NC(=O)[C@H](C(C)C)N(C)C(=O)[C@H](Cc2ccccc2)N(C)C(=O)[C@H](CC(C)C)NC(=O)[C@H](COC(C)(C)C)NC(=O)[C@H](CC(C)C)N(C)C(=O)CN(C)C1=O [pd097] ([dV][NMeL]A[NMeV]PL[Sar][NMeL]S(tBu)L[NMeF][NMeV]D-Piperidide; lactam N-13) | 20.4 µL/min/mg | 18.8 µL/min/mg Protein | 0.54 ×10⁻⁶ cm/s | 0.54 10^-6 cm/sec |  |  |  |
| CC[C@H](C)[C@@H]1NC(=O)[C@H](C)NC(=O)[C@H](CC(C)C)N(C)C(=O)[C@H](COC(C)(C)C)NC(=O)[C@H](CC(C)C)N(C)C(=O)[C@@H]2CCCN2C(=O)[C@H](Cc2ccccc2)NC(=O)[C@H]([C@@H](C)CC)N(C)C(=O)[C@H](CC(C)C)N(C)C(=O)CCCN(C)C(=O)C[C@@H](C(=O)N2CCCCC2)NC(=O)[C@H](Cc2ccccc2)N(C)C(=O)[C@H](CC)N(C)C1=O [pd098] ([NMeGABA][NMeL][NMeI]FP[NMeL]S(tBu)[NMeL]AI[NMeAbu][NMeF]D-Piperidide; lactam N-13) | 44.5 µL/min/mg | 37.8 µL/min/mg Protein | 0.57 ×10⁻⁶ cm/s | 0.57 10^-6 cm/sec |  |  |  |
| CCCCN1CC(=O)N(C)[C@@H](CC)C(=O)N[C@H](C(=O)N2CCCCC2)CC(=O)N(C)[C@@H](C)C(=O)N[C@@H]([C@@H](C)CC)C(=O)N(C)[C@@H](Cc2ccccc2)C(=O)N(C)[C@@H](CC(C)C)C(=O)N[C@@H](C(C)C)C(=O)N(C)CC(=O)N[C@@H](CC(C)C)C(=O)N(C)[C@@H](Cc2ccccc2)C(=O)N(C)[C@@H](C)C(=O)N[C@@H](CC(C)C)C1=O [pd099] ([NMeA]I[NMeF][NMeL]V[Sar]L[NMeF][NMeA]L[NBuGly][NMeAbu]D-Piperidide; lactam N-13) | 30.3 µL/min/mg | 27.8 µL/min/mg Protein | 0.41 ×10⁻⁶ cm/s | 0.41 10^-6 cm/sec |  |  |  |
| CCCCN1CC(=O)N[C@@H](COC(C)(C)C)C(=O)N(C)[C@@H](Cc2ccccc2)C(=O)N[C@@H](CC(C)C)C(=O)N(C)[C@@H](C(C)C)C(=O)N[C@H](C(=O)N2CCCCC2)CC(=O)N[C@H](C(C)C)C(=O)N(C)[C@@H](Cc2ccccc2)C(=O)N[C@@H](CC(C)C)C(=O)N(C)[C@@H](C(C)C)C(=O)N(C)[C@@H](CC(C)C)C(=O)N[C@@H]([C@@H](C)O)C(=O)N(C)[C@@H](CC(C)C)C1=O [pd100] ([dV][NMeF]L[NMeV][NMeL]T[NMeL][NBuGly]S(tBu)[NMeF]L[NMeV]D-Piperidide; lactam N-13) | 39.6 µL/min/mg | 28.4 µL/min/mg Protein | < 0.12 ×10⁻⁶ cm/s | <0.12 10^-6 cm/sec |  |  |  |
| CC[C@@H]1NC(=O)[C@H](Cc2ccccc2)N(C)C(=O)[C@H]([C@@H](C)CC)NC(=O)[C@H](CC(C)C)N(C)C(=O)[C@H](CC(C)C)NC(=O)CCN(C)C(=O)C[C@@H](C(=O)N2CCCCC2)NC(=O)[C@H](CC(C)C)N(C)C(=O)[C@H](C)N(C)C(=O)[C@H]([C@@H](C)O)NC(=O)[C@H](CC(C)C)N(C)C(=O)[C@H](C(C)C)NC(=O)[C@H](Cc2ccccc2)N(C)C1=O [pd101] ([NMeβAla]L[NMeL]I[NMeF][Abu][NMeF]V[NMeL]T[NMeA][NMeL]D-Piperidide; lactam N-13) | 41.1 µL/min/mg | 31.5 µL/min/mg Protein | 0.16 ×10⁻⁶ cm/s | 0.16 10^-6 cm/sec |  |  |  |
| CC[C@H](C)[C@@H]1NC(=O)[C@H](C)N(C)C(=O)[C@H]([C@@H](C)O)NC(=O)[C@H](Cc2ccccc2)N(C)C(=O)[C@H](COC(C)(C)C)NC(=O)[C@H](CC(C)C)N(C)C(=O)[C@H](CCc2ccccc2)NC(=O)[C@@H]2CCCN2C(=O)[C@H]([C@@H](C)CC)NC(=O)[C@H](CC(C)C)N(C)C(=O)CCCN(C)C(=O)C[C@@H](C(=O)N2CCCCC2)NC(=O)[C@H](CC(C)C)N(C)C1=O [pd102] ([NMeGABA][NMeL]IP[hPhe][NMeL]S(tBu)[NMeF]T[NMeA]I[NMeL]D-Piperidide; lactam N-13) | 32.9 µL/min/mg | 25.1 µL/min/mg Protein | 0.09 ×10⁻⁶ cm/s | 0.09 10^-6 cm/sec |  |  |  |
| CCCCN1CC(=O)N[C@@H]([C@@H](C)CC)C(=O)N(C)[C@@H](CC(C)C)C(=O)N[C@H](C(=O)N2CCCCC2)CC(=O)N(C)[C@@H](C)C(=O)N(C)[C@@H](CC(C)C)C(=O)N[C@@H]([C@@H](C)O)C(=O)N(C)[C@@H](Cc2ccccc2)C(=O)N[C@@H](CC)C(=O)N(C)[C@@H](Cc2ccccc2)C(=O)N[C@@H](CC(C)C)C(=O)N(C)[C@@H]([C@@H](C)CC)C(=O)N[C@@H](CC(C)C)C1=O [pd103] ([NMeA][NMeL]T[NMeF][Abu][NMeF]L[NMeI]L[NBuGly]I[NMeL]D-Piperidide; lactam N-13) | 25.5 µL/min/mg | 21.3 µL/min/mg Protein | 0.08 ×10⁻⁶ cm/s | 0.08 10^-6 cm/sec |  |  |  |
| CC[C@H](C)[C@@H]1NC(=O)[C@H](CC(C)C)N(C)C(=O)[C@H](CC(C)C)NC(=O)[C@H](C)N(C)C(=O)C[C@@H](C(=O)N2CCCCC2)NC(=O)[C@H](CC(C)C)NC(=O)[C@@H]2CCCN2C(=O)[C@H](CC(C)C)N(C)C(=O)[C@H]([C@@H](C)O)NC(=O)[C@H]([C@@H](C)CC)N(C)C(=O)[C@H](Cc2ccccc2)N(C)C(=O)[C@H](C)NC(=O)[C@H](Cc2ccccc2)N(C)C1=O [pd104] ([NMeA]L[NMeL]I[NMeF]A[NMeF][NMeI]T[NMeL]PLD-Piperidide; lactam N-13) | 36 µL/min/mg | 36.2 µL/min/mg Protein | 0.2 ×10⁻⁶ cm/s | 0.20 10^-6 cm/sec |  |  |  |
| CC[C@@H]1NC(=O)[C@H](Cc2ccccc2)N(C)C(=O)[C@H](CC(C)C)NC(=O)CNC(=O)[C@H]([C@@H](C)O)N(C)C(=O)[C@H](CC(C)C)N(C)C(=O)[C@H]([C@@H](C)CC)NC(=O)[C@H](Cc2ccccc2)N(C)C(=O)CN(C)C(=O)C[C@@H](C(=O)N2CCCCC2)NC(=O)[C@H](C(C)C)N(C)C(=O)[C@H](CC(C)C)NC(=O)[C@H](C)N(C)C1=O [pd105] ([Sar][NMeF]I[NMeL][NMeT]GL[NMeF][Abu][NMeA]L[NMeV]D-Piperidide; lactam N-13) | 28.9 µL/min/mg | 22.7 µL/min/mg Protein | 0.11 ×10⁻⁶ cm/s | 0.11 10^-6 cm/sec |  |  |  |
| CC[C@@H]1NC(=O)[C@H](C(C)C)N(C)C(=O)[C@H](CC(C)C)NC(=O)[C@H](CC(C)C)N(C)C(=O)[C@H]([C@@H](C)O)NC(=O)CN(C)C(=O)[C@H]([C@@H](C)CC)NC(=O)[C@H](Cc2ccccc2)N(C)C(=O)[C@H](CC(C)C)N(C)C(=O)C[C@@H](C(=O)N2CCCCC2)NC(=O)[C@H](Cc2ccccc2)N(C)C(=O)[C@H](COC(C)(C)C)NC(=O)[C@@H]2CCCN2C1=O [pd106] ([NMeL][NMeF]I[Sar]T[NMeL]L[NMeV][Abu]PS(tBu)[NMeF]D-Piperidide; lactam N-13) | 32.7 µL/min/mg | 37.4 µL/min/mg Protein | 0.24 ×10⁻⁶ cm/s | 0.24 10^-6 cm/sec |  |  |  |
| CC(C)C[C@@H]1NC(=O)[C@H](CC(C)C)N(C)C(=O)[C@H](C(C)C)N(C)C(=O)[C@H](CCc2ccccc2)NC(=O)[C@H]([C@@H](C)O)N(C)C(=O)[C@@H](C(C)C)NC(=O)C[C@@H](C(=O)N2CCCCC2)NC(=O)[C@H](C(C)C)N(C)C(=O)[C@H](CC(C)C)NC(=O)[C@H](Cc2ccccc2)N(C)C(=O)[C@@H]2CCCN2C(=O)[C@H](CC(C)C)N(C)C(=O)CN(C)C1=O [pd107] ([dV][NMeT][hPhe][NMeV][NMeL]L[Sar][NMeL]P[NMeF]L[NMeV]D-Piperidide; lactam N-13) | 36.3 µL/min/mg | 31.5 µL/min/mg Protein | 0.81 ×10⁻⁶ cm/s | 0.81 10^-6 cm/sec |  |  |  |
